From patent US9567319B2, “Compound having higher inhibitory activity on protein kinase G and preparation method thereof” (Jenkem Technology Co., Ltd., (Tianjin), priority 2014, dated 2017)
Where “and” joins values, the source holds several entries; their conditions need not be identical. Equal values may be shown once.

Key:
[1] = tested on: hyperalgesia induced by Freund's complete adjuvant (CFA) in rats; test: Therapeutic effect on CFA induced hyperalgesia in rats (overall conclusion of Von Frey and weight bearing tests); format: in vivo, SD rats; settings: compared with vehicle
Procedure: . A repeat efficacy study was carried out on the same batch of animals with a single-dose treatment followed by a washing-out period. The 14 days in life studies included two stages: a single low dose treatment assessment on the 7th day and then a single high dose treatment test on the 14th day after CFA injection.
On the 7th day after CFA injection, the rats were randomly assigned to respective groups using a computer generated randomization procedure based on the body weight and the baseline values of Von Frey and weight bearing test. Animals received corresponding single dose treatments (vehicle and 3 test articles) on the 7th and 14th days after CFA injection, respectively, and the effect of the test compounds were evaluated. Hyperalgesia of all the study animals was assessed following a single low dose treatment with the test articles on day 7, while a single high dose effect of the test article was evaluated on day 14.
The mechanical hyperalgesia and weight bearing were measured on day 7 and day 14 after CFA injection, followed by administration of control or test articles. Von Frey filaments and weight bearing were measured on all the study animals at three time points on day 7, and four time points on day 14. An extra time point assessment was conducted on day 14, considering the strong analgesic effect of the test articles at a higher dose noticed during the test at the 3th time point.
The effects of compounds 46, JK-02A and JK-02H on CFA induced hyperalgesia in rats were assessed with Von Frey and weight bearing tests following single injection.

[2] = tested on: hyperalgesia induced by Freund's complete adjuvant (CFA) in rats; test: Weight bearing test, CFA induced hyperalgesia in rats; format: in vivo, SD rats; settings: for Weight Bearing Test Values (Mean ± SD), Baseline: pretreatment, n=8; for Weight Bearing Test Values (Mean ± SD), 15 min: 15 min post treatment; for Weight Bearing Test Values (Mean ± SD), 2 h: 2 h post treatment
Procedure: Compounds 46 and JK-02A were prepared according to the disclosure of US patent application No. US2008/0176920, and compound JK-02H was prepared according to Example 1. A repeat efficacy study was carried out on the same batch of animals with a single-dose treatment followed by a washing-out period. The 14 days in life studies included two stages: a single low dose treatment assessment on the 7th day and then a single high dose treatment test on the 14th day after CFA injection. On the 7th day after CFA injection, the rats were randomly assigned to respective groups using a computer generated randomization procedure based on the body weight and the baseline values of Von Frey and weight bearing test. Animals received corresponding single dose treatments (vehicle and 3 test articles) on the 7th and 14th days after CFA injection, respectively, and the effect of the test compounds were evaluated. Hyperalgesia of all the study animals was assessed following a single low dose treatment with the test articles on day 7, while a single high dose effect of the test article was evaluated on day 14. The mechanical hyperalgesia and weight bearing were measured on day 7 and day 14 after CFA injection, followed by administration of control or test articles. Von Frey filaments and weight bearing were measured on all the study animals at three time points on day 7, and four time points on day 14. An extra time point assessment was conducted on day 14, considering the strong analgesic effect of the test articles at a higher dose noticed during the test at the 3th time point. Rats distributed body weight unequally on the CFA-injected and contra lateral paws, which was measured by a weight balance changing instrument (Bio-medical, USA). The animals were tested in a box constructed to register the weight load exerted by the hind paws by means of force plates inserted in the floor. The mean weight bearing (unit in “g”) between the CFA-injected paw and the contra-lateral paw was determined in 10 seconds. The weight bearing test of all study animals was conducted at the same time intervals as the mechanical hyperalgesia test. All the results were expressed as mean±SD. One-way analysis of variance (ANOVA) followed by a multiple comparison test were applied among the groups, p<0.05 accepted as significant.

[3] = day 7 after CFA, single low dose i.v. (46 and JK-02A 10 mg/kg, JK-02H 5 mg/kg)
[4] = day 14 after CFA, single high dose i.v. (46 and JK-02A 40 mg/kg, JK-02H 20 mg/kg)
[5] = individual animal, high dose i.v. (46 and JK-02A 40 mg/kg, JK-02H 20 mg/kg)
[6] = individual animal, low dose i.v. (46 and JK-02A 10 mg/kg, JK-02H 5 mg/kg)

SMILES: CCCOc1ccc(F)c(F)c1C(=O)c1ccc(C(=O)N[C@@H]2CNC[C@H]2NC(=O)c2ccc3cn[nH]c3c2)cc1 [JK-02A]
- anti-hyperalgesia effect at high dose ([1]; high dose i.v.: JK-02H 20 mg/kg, 46 and JK-02A 40 mg/kg): showed anti-hyperalgesia effects
- anti-hyperalgesia effect at low dose ([1]; low dose i.v.: JK-02H 5 mg/kg, 46 and JK-02A 10 mg/kg): not significant
- Weight Bearing Test Values (Mean ± SD), Baseline ([2]; day 7 after CFA, low dose groups (46 and JK-02A 10 mg/kg, JK-02H 5 mg/kg)): 48.18 ± 5.05 g
- Weight Bearing Test Values (Mean ± SD), 15 min [2, 3]: 38.11 ± 11.23 g
- Weight Bearing Test Values (Mean ± SD), 2 h [2, 3]: 36.24 ± 9.72 g
- Weight Bearing Test Values (Mean ± SD), Baseline ([2]; day 14 after CFA, high dose groups (46 and JK-02A 40 mg/kg, JK-02H 20 mg/kg)): 49.54 ± 7.39 g
- Weight Bearing Test Values (Mean ± SD), 15 min [2, 4]: 28.43 ± 8.83 g
- Weight Bearing Test Values (Mean ± SD), 2 h [2, 4]: 33.36 ± 8.92 g
- Weight Bearing Test Values (Mean ± SD), 5 h ([2]; day 14 after CFA, single high dose i.v. (46 and JK-02A 40 mg/kg, JK-02H 20 mg/kg), 5 h post treatment): 42.69 ± 7.52 g
- Weight Bearing Values of Individual Animal, Day 14, 15 min, Left [2, 5]: 58.9 g and 57.8 g and 49.6 g and 53.7 g and 52.7 g and 50.9 g and 67.1 g and 72.2 g
- Weight Bearing Values of Individual Animal, Day 14, 15 min, Right [2, 5]: 77.1 g and 95.3 g and 77.6 g and 90.1 g and 80.4 g and 80.1 g and 104.0 g and 85.7 g
- Weight Bearing Values of Individual Animal, Day 14, 15 min, Δ [2, 5]: 18.2 g and 37.5 g and 28.0 g and 36.4 g and 27.7 g and 29.2 g and 36.9 g and 13.5 g
- Weight Bearing Values of Individual Animal, Day 14, 2 h, Left [2, 5]: 66.8 g and 71.9 g and 48.9 g and 60.7 g and 50.1 g and 54.6 g and 44.8 g and 72.2 g
- Weight Bearing Values of Individual Animal, Day 14, 2 h, Right [2, 5]: 97.0 g and 106.5 g and 97.2 g and 81.1 g and 79.8 g and 91.1 g and 86.5 g and 97.7 g
- Weight Bearing Values of Individual Animal, Day 14, 2 h, Δ [2, 5]: 30.2 g and 34.6 g and 48.3 g and 20.4 g and 29.7 g and 36.5 g and 41.7 g and 25.5 g
- Weight Bearing Values of Individual Animal, Day 14, 5 h, Left [2, 5]: 38.0 g and 62.9 g and 55.0 g and 45.7 g and 52.7 g and 39.7 g and 54.9 g and 68.2 g
- Weight Bearing Values of Individual Animal, Day 14, 5 h, Right [2, 5]: 77.2 g and 99.3 g and 93.8 g and 90.7 g and 92.0 g and 99.9 g and 95.3 g and 110.4 g
- Weight Bearing Values of Individual Animal, Day 14, 5 h, Δ [2, 5]: 39.2 g and 36.4 g and 38.8 g and 45.0 g and 39.3 g and 60.2 g and 40.4 g and 42.2 g
- Weight Bearing Values of Individual Animal, Day 7, 15 min, Left [2, 6]: 36.6 g and 56.4 g and 47.8 g and 37.9 g and 36.9 g and 50.5 g and 25.4 g and 65.6 g
- Weight Bearing Values of Individual Animal, Day 7, 15 min, Right [2, 6]: 83.8 g and 79.1 g and 74.1 g and 89.5 g and 62.9 g and 93.7 g and 69.1 g and 109.8 g
- Weight Bearing Values of Individual Animal, Day 7, 15 min, Δ [2, 6]: 47.2 g and 22.7 g and 26.3 g and 51.6 g and 26.0 g and 43.2 g and 43.7 g and 44.2 g
- Weight Bearing Values of Individual Animal, Day 7, 2 h, Left [2, 6]: 68.5 g and 68.0 g and 31.5 g and 39.9 g and 43.9 g and 37.3 g and 52.3 g and 62.2 g
- Weight Bearing Values of Individual Animal, Day 7, 2 h, Right [2, 6]: 99.4 g and 85.5 g and 80.7 g and 75.7 g and 77.3 g and 73.4 g and 95.8 g and 105.7 g
- Weight Bearing Values of Individual Animal, Day 7, 2 h, Δ [2, 6]: 30.9 g and 17.5 g and 49.2 g and 35.8 g and 33.4 g and 36.1 g and 43.5 g (2×)
- First Baseline, Balance Left, individual animal ([2]; individual animal, pretreatment day 7, left (CFA-injected) hind paw): 54.2 g and 57.2 g and 45.5 g and 64.4 g and 45.6 g and 12.0 g and 58.0 g and 64.0 g
- First Baseline, Balance Right, individual animal ([2]; individual animal, pretreatment day 7, right hind paw): 103.7 g and 98.1 g and 93.0 g and 117.4 g and 90.5 g and 66.3 g and 100.6 g and 116.7 g
- First Baseline, Balance Δ, individual animal ([2]; individual animal, pretreatment day 7, right minus left): 49.5 g and 40.9 g and 47.5 g and 53.0 g and 44.9 g and 54.3 g and 42.6 g and 52.7 g
- Second Baseline, Balance Left, individual animal ([2]; individual animal, pretreatment day 14, left (CFA-injected) hind paw): 32.1 g and 47.3 g and 30.4 g and 45.9 g and 50.1 g and 39.6 g and 33.5 g and 57.1 g
- Second Baseline, Balance Right, individual animal ([2]; individual animal, pretreatment day 14, right hind paw): 89.3 g and 90.0 g and 81.0 g and 87.2 g and 92.4 g and 90.4 g and 94.1 g and 97.9 g
- Second Baseline, Balance Δ, individual animal ([2]; individual animal, pretreatment day 14, right minus left): 57.2 g and 42.7 g and 50.6 g and 41.3 g and 52.3 g and 50.8 g and 60.6 g and 40.8 g
